{
  "source": "patent US7419778B2",
  "about": "“Method for high throughput cell-based assays using versatile living microarrays” (PameGene B.V., priority 2002, dated 2008)",
  "test_system": "E. coli XL2 Blue MRF′",
  "assay": "Sensitivity of E. coli to kanamycin in agar plugs on flow-through (Pam) substrate, zone of clearing",
  "format": "cell-based",
  "conditions": "12 hours at 37° C.",
  "method": "[…] The porous nature of the substrate draws the molten agar into the pores by capillary action. These treated substrates were then overlaid with 10^6 cfu/ml E. coli XL2 MRF′ cells containing plasmid pUC18 that had been grown in 2TY broth with 100 μg/ml ampicillin and placed on 2TY plates with the same concentration of ampicillin. Plates were then incubated for 12 hours at 37° C.",
  "data": [
    {"compound": "NC[C@H]1O[C@H](O[C@H]2[C@H](O)[C@@H](O[C@H]3O[C@H](CO)[C@@H](O)[C@H](N)[C@H]3O)[C@H](N)C[C@@H]2N)[C@H](O)[C@@H](O)[C@@H]1O", "note": "[Kanamycin, kanamycin]", "values": [
      {"measurement": "Zone of clearing (diameter mm)", "setting": "10 ng kanamycin, N=12", "value": 0.4, "unit": "mm"},
      {"measurement": "Zone of clearing (diameter mm)", "setting": "100 ng kanamycin, N=16", "value": 2.1, "unit": "mm"},
      {"measurement": "Zone of clearing (diameter mm)", "setting": "1000 ng kanamycin, N=12", "value": 3.5, "unit": "mm"}
    ]}
  ]
}
